Read-outs that look alike come from different tables or passages of the source.
Key:
OCI-AML3 cells = experiment: Proliferation assay, OCI-AML3 (CellTiter-Glo, 7 days); assay type: cell-based, human
Outline: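 Cells were seeded at line-specific low densities for linear growth, exposed to 3.16-fold serial compound dilutions at 0.1% DMSO, and incubated 7 days at 37 °C, 5% CO2. Viability was read by CellTiter-Glo 2.0 luminescence; IC50 came from one-site fits of % inhibition, normalized between DMSO-treated cells (100%) and a day-0 plate (0%).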

muscarinic M2 receptor = muscarinic M2 receptor (Homo sapiens (Human), UniProt P08172); experiment: Muscarinic M2 receptor binding assay (assay 1); conditions: [3H]AF-DX 384 2 nM, Cheng Prusoff
Chain of muscarinic M2 receptor (P08172 whole entry): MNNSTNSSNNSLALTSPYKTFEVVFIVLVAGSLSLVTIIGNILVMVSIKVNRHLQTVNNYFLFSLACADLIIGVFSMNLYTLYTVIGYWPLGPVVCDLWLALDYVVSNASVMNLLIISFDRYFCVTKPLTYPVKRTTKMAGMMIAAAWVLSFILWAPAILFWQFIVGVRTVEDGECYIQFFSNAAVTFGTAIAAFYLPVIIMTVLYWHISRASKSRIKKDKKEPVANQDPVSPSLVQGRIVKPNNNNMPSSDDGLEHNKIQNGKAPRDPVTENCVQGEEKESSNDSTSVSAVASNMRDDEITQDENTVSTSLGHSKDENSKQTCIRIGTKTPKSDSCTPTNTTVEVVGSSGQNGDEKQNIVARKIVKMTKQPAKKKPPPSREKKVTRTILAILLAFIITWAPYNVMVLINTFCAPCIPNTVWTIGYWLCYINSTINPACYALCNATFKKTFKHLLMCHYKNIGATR
Procedure: Cell membrane homogenates (60 μg protein) were incubated for 60 minutes at 22° C. with 2 nM [3H]AF-DX 384 in the absence or presence of the test compound in a buffer containing 50 mM Tris-HCl (pH 7.4), 120 mM NaCl, 5 mM KCl, 5 mM MgCl2, and 1 mM EDTA. Nonspecific binding was determined in the presence of 1 μM atropine. Following incubation, the samples were filtered rapidly under vacuum through glass fiber filters (GF/B, Packard) presoaked with 0.3% PEI and rinsed several times with ice-cold 50 mM Tris-HCl using a 96-sample cell harvester (Unifilter, Packard). The filters were dried then counted for radioactivity in a scintillation counter (Topcount, Packard) using a scintillation cocktail (Microscint 0, Packard). The results were expressed as a percent inhibition of the control radioligand specific binding, from which the Ki was calculated. Data were analyzed using software developed at Cerep (Hill software) and validated by comparison with data generated by the commercial software SigmaPlot®4.0 for Windows® (© 1997 by SPSS Inc.). The inhibition constant, Ki, was calculated using the Cheng Prusoff equation:
where L=concentration of ligand in the assay, and Kd=affinity of the ligand for the receptor. The standard reference compound was methoctramine, which was tested in each experiment at several concentrations to obtain a competition curve from which its IC50 was calculated.

[1] = Human liver microsomes (HLMs) intrinsic clearance assay; assay type: in vitro ADME
[2] = human, microsomes, pH 7.4, HLM CLint

Structure (SMILES)	IC50 (OCI-AML3 cells; Homo sapiens, OCI-AML-3, 168 h) [µM]	Ki (muscarinic M2 receptor) [µM]	HLM CLint ([1]; human, microsomes, 1 µM, pH 7.4) [µL/min/mg]	microsomal CLint at 1 µM [1, 2] [µL/min/mg]	IC50 (OCI-AML3 cells) [µM]	microsomal CLint at 1 µM ([1]; human, microsomes, pH 7.4, 1 mg/mL HLM, NADPH, read-out: HLM CLint) [µL/min/mg]	HLM CLint ([1]; 1 mg/mL HLM, NADPH) [µL/min/mg]
CCN(C(=O)c1cc(F)ccc1-n1c(C)c(C(=O)C2CCN(C(=O)[C@@H]3CCC(C)(C)N3)CC2)c2ccncc21)C(C)C (single isomer, unassigned) [Example 50-2]	0.063	34.3	48				
CC(C)c1ncccc1-c1cc(F)ccc1-n1cc(C(=O)C2CN(C(=O)[C@H]3N[C@@H]4CC[C@H]3C4)C2)c2ccncc21 [Example 10, (1-((1R,3S,4S)-2-Azabicyclo[2.2.1]heptane-3-carbonyl)azetidin-3-yl)(1-(4-fluoro-2-(2-isopropylpyridin-3-yl)phenyl)-1H-pyrrolo[2,3-c]pyridin-3-yl)methanone]	0.024	10.5		182			
CC(C)N(C(=O)c1cc(F)ccc1-n1cc(C(=O)[C@H]2CCN(C[C@H]3CC[C@H](NS(C)(=O)=O)CC3)C2)c2ccncc21)C(C)C [Example 1, 5-Fluoro-N,N-diisopropyl-2-(3-((S)-1-(((1r,4S)-4-(methylsulfonamido)-cyclohexyl)methyl)pyrrolidine-3-carbonyl)-1H-pyrrolo[2,3-c]pyridin-1-yl)benzamide]	0.313	8.1		178			
C[C@@H]1CCC[C@H](C)N1C(=O)c1cc(F)ccc1-n1cc(C(=O)C2CCN(C(=O)[C@H]3N[C@@H]4CC[C@H]3C4)CC2)c2ccncc21 [Example 33, (1-((1R,3S,4S)-2-Azabicyclo[2.2.1]heptane-3-carbonyl)piperidin-4-yl)(1-(2-((2R,6S)-2,6-dimethylpiperidine-1-carbonyl)-4-fluorophenyl)-1H-pyrrolo[2,3-c]pyridin-3-yl)methanone]	0.207	0.3		50			
CC(C)N(C(=O)c1cc(F)ccc1-n1cc(C(=O)C2CCN(C(=O)[C@@H]3CCC(C)(C)N3)CC2)c2ccncc21)C(C)C [Example 27, (S)-2-(3-(1-(5,5-Dimethylpyrrolidine-2-carbonyl)piperidine-4-carbonyl)-1H-pyrrolo[2,3-c]pyridin-1-yl)-5-fluoro-N,N-diisopropylbenzamide]	0.034	1.6		46			
CCN(C(=O)c1cc(F)ccc1-n1c(C)c(C(=O)[C@@H]2CCN(C(=O)[C@@H]3CC[C@@H](C)N3)[C@@H](C)C2)c2ccncc21)C(C)C (stereo in doubt) [Example 65, N-Ethyl-5-fluoro-N-isopropyl-2-(2-methyl-3-((2S,4RS)-2-methyl-1-((2S,5R)-5-methylpyrrolidine-2-carbonyl)piperidine-4-carbonyl)-1H-pyrrolo[2,3-c]pyridin-1-yl)benzamide]	0.126			55			
Cc1c(C(=O)[C@@H]2CCN(C(=O)[C@@H]3CC[C@@H](C)N3)[C@@H](C)C2)c2ccncc2n1-c1ccc(F)cc1C(=O)N(C(C)C)C(C)C (stereo in doubt) [Example 64, 5-Fluoro-N,N-diisopropyl-2-(2-methyl-3-((2S,4RS)-2-methyl-1-((2S,5R)-5-methylpyrrolidine-2-carbonyl)piperidine-4-carbonyl)-1H-pyrrolo[2,3-c]pyridin-1-yl)benzamide]	0.313			88			
CC(C)N(C(=O)c1cc(F)ccc1-n1cc(C(=O)C2CCN(C[C@H]3CC[C@H](NS(C)(=O)=O)CC3)CC2)c2ccncc21)C(C)C [Example 17, 5-Fluoro-N,N-diisopropyl-2-(3-(1-(((1r,4r)-4-(methylsulfonamido)cyclohexyl)-methyl)piperidine-4-carbonyl)-1H-pyrrolo[2,3-c]pyridin-1-yl)benzamide]	0.356			52			
CCN(C(=O)c1cc(F)ccc1-n1c(C)c(C(=O)[C@@H]2CCN(C(=O)[C@@H]3CCC4(CC4)N3)[C@@H](C)C2)c2ccncc21)C(C)C (single isomer, unassigned) [Example 52-1, N-Ethyl-5-fluoro-N-isopropyl-2-(2-methyl-3-((2R*,4S*)-2-methyl-1-((S)-4-azaspiro[2.4]heptane-5-carbonyl)piperidine-4-carbonyl)-1H-pyrrolo[2,3-c]pyridin-1-yl)benzamide]					0.04	150	
CCN(C(=O)c1cc(F)ccc1-n1c(C)c(C(=O)[C@@H]2CCN(C(=O)[C@@H]3CCC4(CC4)N3)[C@@H](C)C2)c2ccncc21)C(C)C (single isomer, unassigned) [Example 52-2, N-Ethyl-5-fluoro-N-isopropyl-2-(2-methyl-3-((2R*,4S*)-2-methyl-1-((S)-4-azaspiro[2.4]heptane-5-carbonyl)piperidine-4-carbonyl)-1H-pyrrolo[2,3-c]pyridin-1-yl)benzamide]					0.082		150
CC(C)N(C(=O)c1cc(F)ccc1-n1cc(C(=O)[C@@H]2CCN(C[C@H]3CC[C@H](NS(C)(=O)=O)CC3)C2)c2ccncc21)C(C)C [Example 4, 5-Fluoro-N,N-diisopropyl-2-(3-((R)-1-(((1r,4R)-4-(methylsulfonamido)-cyclohexyl)methyl)pyrrolidine-3-carbonyl)-1H-pyrrolo[2,3-c]pyridin-1-yl)benzamide]	0.223			171			

The next lines start with results.

IC50 (OCI-AML3 cells; Homo sapiens, OCI-AML-3, 168 h) [µM]	Ki (muscarinic M2 receptor) [µM]	HLM CLint ([1]; human, microsomes, 1 µM, pH 7.4) [µL/min/mg]	microsomal CLint at 1 µM [1, 2] [µL/min/mg]	Structure (SMILES)	IC50 (OCI-AML3 cells) [µM]	microsomal CLint at 1 µM ([1]; human, microsomes, pH 7.4, 1 mg/mL HLM, NADPH, read-out: HLM CLint) [µL/min/mg]	HLM CLint ([1]; 1 mg/mL HLM, NADPH) [µL/min/mg]
0.126	0.8		43	CC(C)N(C(=O)c1cc(F)ccc1-n1cc(C(=O)[C@H]2CCN(C(=O)[C@H]3N[C@@H]4CC[C@H]3C4)C2)c2ccncc21)C(C)C [Example 2, 2-(3-((S)-1-((1R,3S,4S)-2-Azabicyclo[2.2.1]heptane-3-carbonyl)pyrrolidine-3-carbonyl)-1H-pyrrolo[2,3-c]pyridin-1-yl)-5-fluoro-N,N-diisopropylbenzamide]			
0.051	0.2		27	CC(C)N(C(=O)c1cc(F)ccc1-n1cc(C(=O)C2CCN(C(=O)[C@H]3N[C@@H]4CC[C@H]3C4)CC2)c2ccncc21)C(C)C [Example 16, 2-(3-(1-((1R,3S,4S)-2-Azabicyclo[2.2.1]heptane-3-carbonyl)piperidine-4-carbonyl)-1H-pyrrolo[2,3-c]pyridin-1-yl)-5-fluoro-N,N-diisopropylbenzamide]			
0.037	1.9		94	CC(C)N(C(=O)c1cc(F)ccc1-n1cc(C(=O)C2CCN(C(=O)[C@H]3NC[C@@H]4CC[C@@H]43)CC2)c2ccncc21)C(C)C (relative stereo) [Example 25, rel-2-(3-(1-((1R,2R,5S)-3-Azabicyclo[3.2.0]heptane-2-carbonyl)piperidine-4-carbonyl)-1H-pyrrolo[2,3-c]pyridin-1-yl)-5-fluoro-N,N-diisopropylbenzamide]			
0.125	6.6		35	CC(C)N(C(=O)c1cc(F)ccc1-n1cc(C(=O)C2CN(C(=O)[C@H]3N[C@@H]4CC[C@H]3C4)C2)c2ccncc21)C(C)C [Example 5, 2-(3-(1-((1R,3S,4S)-2-Azabicyclo[2.2.1]heptane-3-carbonyl)azetidine-3-carbonyl)-1H-pyrrolo[2,3-c]pyridin-1-yl)-5-fluoro-N,N-diisopropylbenzamide]			
0.225			27	CCN(C(=O)c1cc(F)ccc1-n1cc(C(=O)C2CN(C(=O)[C@H]3NC4CCC3CC4)C2)c2ccncc21)C(C)C [Example 9, (S)-2-(3-(1-(2-Azabicyclo[2.2.2]octane-3-carbonyl)azetidine-3-carbonyl)-1H-pyrrolo[2,3-c]pyridin-1-yl)-N-ethyl-5-fluoro-N-isopropylbenzamide]			
	0.4		41	CCN(C(=O)c1cc(F)ccc1-n1cc(C(=O)C2CCN(C(=O)[C@H]3NC[C@@H]4C[C@@H]43)CC2)c2ccncc21)C(C)C [Example 28, 2-(3-(1-((1S,2S,5R)-3-Azabicyclo[3.1.0]hexane-2-carbonyl)piperidine-4-carbonyl)-1H-pyrrolo[2,3-c]pyridin-1-yl)-N-ethyl-5-fluoro-N-isopropylbenzamide]			
0.113			41	CC(C)N(C(=O)c1cc(F)ccc1-n1cc(C(=O)[C@@H]2CCN(C(=O)[C@H]3N[C@@H]4CC[C@H]3C4)C2)c2ccncc21)C(C)C [Example 3, 2-(3-((R)-1-((1R,3S,4S)-2-Azabicyclo[2.2.1]heptane-3-carbonyl)pyrrolidine-3-carbonyl)-1H-pyrrolo[2,3-c]pyridin-1-yl)-5-fluoro-N,N-diisopropylbenzamide]			
0.059			54	CCN(C(=O)c1cc(F)ccc1-n1cc(C(=O)C2CCN(C(=O)[C@H]3N[C@H]4C[C@@H]3[C@@H](F)C4)CC2)c2ccncc21)C(C)C [Example 30, N-Ethyl-5-fluoro-2-(3-(1-((1S,3S,4S,5S)-5-fluoro-2-azabicyclo[2.2.1]heptane-3-carbonyl)piperidine-4-carbonyl)-1H-pyrrolo[2,3-c]pyridin-1-yl)-N-isopropylbenzamide]			

— patent US20240335431A1, “1-H-PYRROLO[2,3-c]PYRIDINE COMPOUNDS” (Acerta Pharma B.V., priority 2023, published 2024)
